Counter-ions that a name gives are not always drawn.
target: T1, human neutrophil elastase (Homo sapiens, UniProt P08246); test: In vitro assay of human neutrophil elastase (HNE); assay type: biochemical; conditions: 118 nM purified human neutrophil elastase, pH 8.6, 15 min incubation at 30° C., MeO-succinyl-alanyl-alanyl-prolyl-valyl-p-nitroanilide substrate; read-out: HNE IC50
T1 sequence (P08246 30-267): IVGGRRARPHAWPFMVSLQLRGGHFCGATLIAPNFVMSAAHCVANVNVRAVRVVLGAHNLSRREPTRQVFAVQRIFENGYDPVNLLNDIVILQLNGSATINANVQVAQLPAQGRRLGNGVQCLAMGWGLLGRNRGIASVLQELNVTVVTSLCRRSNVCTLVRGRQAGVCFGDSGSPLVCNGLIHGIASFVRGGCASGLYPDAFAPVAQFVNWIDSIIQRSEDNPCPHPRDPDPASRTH
Procedure, shortened: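 Residual activity was taken as the 10 min rate of absorbance rise at 405 nm after adding 0.6 mM MeO-succinyl-AAPV-p-nitroanilide. Curve fitting of activity against concentration gave IC50.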

SMILES	IC50
CCC[C@H]1C(=O)N(S(=O)(=O)c2ccc3ccccc3c2)[C@H]2CCN(C(=O)CCc3ccccn3)[C@H]12 (relative stereo) [Example 48, rel-(3R,3aR,6aS)-1-(Naphthalene-2-sulfonyl)-3-propyl-4-(3-pyridin-2yl-propionyl)-hexahydro-pyrrolo[3,2-b]pyrrol-2-one]	122 nM
CCC[C@H]1C(=O)N(S(C)(=O)=O)[C@H]2CCN(S(=O)(=O)CCCN3CCOCC3)[C@H]12 (relative stereo) [Example 8, rel-(3R,3aR,6aS)-1-Methanesulfonyl-4-(3-morpholin-4-yl-propane-1-sulfonyl)-3-propyl-hexahydro-pyrrolo[3,2-b]pyrrol-2-one]	29 nM
CCC[C@H]1C(=O)N(S(C)(=O)=O)[C@H]2CCN(C(=O)CCCN3CCCCC3)[C@H]12 (relative stereo) [Example 87, rel-(3R,3aR,6aS)-1-Methanesulfonyl-4-(4-piperidin-1-yl-butyryl)-3-propyl-hexahydro-pyrrolo[3,2-b]pyrrol-2-one DL-tartrate]	96 nM
CCC[C@H]1C(=O)N(S(=O)(=O)c2cccc3ccccc23)[C@H]2CCN(C(=O)C3CCN(C(=O)OC(C)(C)C)CC3)[C@H]12 (relative stereo) [Example 16, rel-(3aS,6R,6aR)-4-[4-(Naphthalene-1-sulfonyl)-5-oxo-6-propyl-hexahydro-pyrrolo[3,2-b]pyrrole-1-carbonyl-carbonyl]-piperidine-1-carboxylic acid tert-butyl]	267 nM
CCC[C@H]1C(=O)N(S(C)(=O)=O)[C@H]2CCN(C(=O)CN3CCCCCC3)[C@H]12 (relative stereo) [Example 104, rel-(3R,3aR,6aS)-4-Azepin-1-yl-acetyl)-1-methanesulfonyl-3-propyl-hexahydro-pyrrolo[3,2-b]pyrrol-2-one hydrochloride]	574 nM
CCC[C@H]1C(=O)N(S(C)(=O)=O)[C@H]2CCN(C(=O)CCCCCN3CCCC3)[C@H]12 (relative stereo) [Example 73, rel-(3R,3aR,6aS)-1-Methanesulfonyl-3-propyl-4-(6-pyrrolidin-1-yl-hexanoyl)-hexahydro-pyrrolo[3,2-b]pyrrol-2-one hydrochloride]	74 nM
C=CC[C@H]1C(=O)N(S(=O)(=O)c2cccc3cccnc23)[C@H]2CCN(C(=O)OCc3ccccc3)[C@H]12 (relative stereo) [Example 49, rel-(3aS,6R,6aR)-6-Allyl-5-oxo-4-(quinoline-8-sulfonyl)-hexahydro-pyrrolo[3,2-b]pyrrole-1-carboxylic acid benzyl ester]	412 nM
CCC[C@H]1C(=O)N(S(C)(=O)=O)[C@H]2CCN(S(=O)(=O)c3ccc(C(=O)NC4CC4)cc3)[C@H]12 (relative stereo) [Example 125, rel-N-Cyclopropyl-4-(4-methanesulfonyl-5-oxo-6R-propyl-hexahydro-(3aS,6aR)-pyrrolo[3,2-b]pyrrole-1-sulfonyl)-benzamide]	13 nM
CCC[C@H]1C(=O)N(S(C)(=O)=O)[C@H]2CCN(C(=O)CCCCCCCCCN3CCCC3)[C@H]12 (relative stereo) [Example 71, rel-(3R,3aR,6aS)-1-Methanesulfonyl-3-propyl-4-(10-pyrrolidin-1-yl-decanoyl)-hexahydro-pyrrolo[3,2-b]pyrrol-2-one hydrochloride]	35 nM
C=CC[C@H]1C(=O)N(S(C)(=O)=O)[C@H]2CCN(C(=O)OCc3ccccc3)[C@H]12 (relative stereo) [Example 6, rel-(3aS,6R,6aR)-6-Allyl-4-methanesulfonyl-5-oxo-hexahydro-pyrrolo[3,2-b]pyrrole-1-carboxylic acid benzyl ester]	70 nM
CCC[C@H]1C(=O)N(S(C)(=O)=O)[C@H]2CCN(C(=O)CCCCCCCCCN3CCCCCC3)[C@H]12 (relative stereo) [Example 66, rel-(3R,3aR,6aS)-4-(10-Azepin-1-yl-decanoyl)-1-methanesulfonyl-3-propyl-hexahydro-pyrrolo[3,2-b]pyrrol-2-one hydrochloride]	34 nM
CCC[C@H]1C(=O)N(S(=O)(=O)c2ccc3ccccc3c2)[C@H]2CCN(C(C)=O)[C@H]12 (relative stereo) [Example 24, rel-(3R,3aR,6aS)-4-Acetyl-1-(naphthalene-2-sulfonyl)-3-propyl-hexahydro-pyrrolo[3,2-b][pyrrol-2-one]	9 nM
CCC[C@H]1C(=O)N(S(=O)(=O)c2cccc3ccccc23)[C@H]2CCN(S(=O)(=O)Cc3cccc(-c4nn[nH]n4)c3)[C@H]12 (relative stereo) [Example 32, rel-(3R,3aR,6aS)-1-(Naphthalene-1-sulfonyl)-3-propyl-4-[3-(1H-tetrazol-5-yl)-phenylmethanesulfonyl]-hexahydro-pyrrol[3,2-b]pyrrol-2-one]	286 nM
CCCCOc1ccc(S(=O)(=O)N2CC[C@H]3[C@H]2[C@@H](C(C)C)C(=O)N3S(C)(=O)=O)cc1 (relative stereo) [Example 230, rel-(3R,3aR,6aS)-4-(4-Butoxy-benzenesulfonyl)-3-isopropyl-1-methanesulfonyl-hexahydro-pyrrolo[3,2-b]pyrrol-2-one]	92 nM
CCC[C@H]1C(=O)N(S(C)(=O)=O)[C@H]2CCN(C(=O)CCCCCCCCCN3CCOCC3)[C@H]12 (relative stereo) [Example 64, rel-(3R,3aR,6aS)-1-Methanesulfonyl-4-(10-morpholin-4-yl-decanoyl)-3-propyl-hexahydro-pyrrolo[3,2-b]pyrrol-2-one DL-tartrate]	26 nM
CCC[C@H]1C(=O)N(S(C)(=O)=O)[C@H]2CCN(C(=O)CCCN(C)c3ccccc3)[C@H]12 (relative stereo) [Example 88, rel-(3R,3aR,6aS)-1-Methanesulfonyl-4-[4-(methyl-phenyl-amino)-butyryl]-3-propyl-hexahydro-pyrrolo[3,2-b]pyrrol-2-one hydrochloride]	75 nM
CCC[C@H]1C(=O)N(S(=O)(=O)c2cccc3ccccc23)[C@H]2CCN(C(=O)C3CCNCC3)[C@H]12 (relative stereo) [Example 17, trifluoroacetate]	342 nM
CCC[C@H]1C(=O)N(S(=O)(=O)c2ccc3ccccc3c2)[C@H]2CCN(S(=O)(=O)CCCN3CCN(C)CC3)[C@H]12 (relative stereo) [Example 14, rel-(3R,3aR,6aS)-4-[3-(4-Methyl-piperazin-1-yl)-propane-1-sulfonyl-1-(naphthalene-2-sulfonyl)-3-propyl-hexahydro-pyrrolo[3,2-b]pyrrol-2-one]	193 nM

The remaining lines, values ahead:

IC50	SMILES
87 nM	CCC[C@H]1C(=O)N(S(=O)(=O)c2ccccc2)[C@H]2CCN(C(=O)CCCCCN3CCCCC3)[C@H]12 (relative stereo) [Example 206, rel-(3R,3aR,6aS)-1-Benzenesulfonyl-4-(6-piperidin-1-yl-hexanoyl)-3-propyl-hexahydro-pyrrol[3,2-b]pyrrol-2-one DL-tartrate]
127 nM	CC(C)[C@H]1C(=O)N(S(C)(=O)=O)[C@H]2CCN(S(=O)(=O)c3ccc(CN4CCCCC4)cc3)[C@H]12 (relative stereo) [Example 198, rel-(3R,3aR,6aS)-3-Isopropyl-1-methanesulfonyl-(4-piperidin-1-ylmethyl-benzenesulfonyl)-hexahydro-pyrrolo[3,2-b]pyrrol-2-one hydrochloride]
27 nM	CCC[C@H]1C(=O)N(S(C)(=O)=O)[C@H]2CCN(S(=O)(=O)c3ccc(N(C)C)cc3)[C@H]12 (relative stereo) [Example 221, rel-(3R, 3aR,6aS)-4-[4-Dimethylamino-benzenesufonyl)-1-methanesulfonyl-3-propyl-hexahydro-pyrrolo[3,2-b]pyrrol-2-one]
38 nM	CCC[C@H]1C(=O)N(S(=O)(=O)c2ccc(Cl)cc2)[C@H]2CCN(C(=O)CCCCCN3CCCCC3)[C@H]12 (relative stereo) [Example 207, rel-(3R,3aR,6aS)-1-(4-Chloro-benzenesulfonyl)-4-(6-piperidin-1-yl-hexanoyl)-3-propyl-hexahydro-pyrrolo[3,2-b]pyrrol-2-one DL-tartrate]
62 nM	CCC[C@H]1C(=O)N(S(=O)(=O)CCC)[C@H]2CCN(C(=O)CCN3CCCCC3)[C@H]12 (relative stereo) [Example 162, rel-(3R,3aR,6aS)-4-(3-Piperidin-1-yl-propionyl)-1-(propane-1-sulfonyl)-3-propyl-hexahydro-pyrrolo[3,2-b]pyrrol-2-one DL-tartrate]
11 nM	CCC[C@H]1C(=O)N(S(C)(=O)=O)[C@H]2CCN(S(=O)(=O)c3ccc(N)cc3)[C@H]12 (relative stereo) [Example 234, rel-(3R,3aR,6aS)-4-(4-Amino-benzenesulfonyl)-1-methanesulfonyl-3-propyl-hexahydro-pyrrolo[3,2-b]pyrrol-2-one]
153 nM	CC(C)[C@H]1C(=O)N(S(C)(=O)=O)[C@H]2CCN(S(=O)(=O)c3ccc(CN(C)C)cc3)[C@H]12 (relative stereo) [Example 197, rel-(3R,3aR,6aS)-4-(4-Dimethylaminomethyl-benzenesulfonyl)-3-isopropyl-1-methanesulfonyl-hexahydro-pyrrolo[3,2-b]pyrrol-2-one hydrochloride]
69 nM	CCC[C@H]1C(=O)N(S(=O)(=O)c2cccnc2)[C@H]2CCN(C(=O)CCN3CCCCC3)[C@H]12 (relative stereo) [Example 172, rel-(3R,3aR,6aS)-4-(3-Piperidin-1-yl-propionyl)-3-propyl-1-(pyridine-3-sulfonyl)-hexahydro-pyrrolo[3,2-b]pyrrol-2-one dihydrochloride]
